Results from patent US9434994B2, “Methods for prediction of clinical outcome to epidermal growth factor receptor inhibitors by non-small cell lung cancer patients” (The Regents of the University of Colorado, a body corporate, priority 2004, dated 2016).
“And” between values parts separate entries of the source, which are not always exact repeats. Identical values can stand only once. Like-named read-outs stand apart in the source and are kept apart here.

Test system: advanced non-small-cell lung cancer patients
[1] = HER2 FISH- and/or EGFR mutation-
[2] = all 85 patients with EGFR mutation and P-Akt
[3] = all 89 patients with EGFR mutation analysis
[4] = all 98 patients with EGFR FISH and P-Akt
[5] = all 98 patients with EGFR IHC and P-Akt
[6] = all 102 patients, Example 1 analysis

Protocol: Eligibility included histologically confirmed NSCLC patients with measurable, locally advanced or metastatic disease, who had progressed or relapsed after chemotherapy, and patients ineligible for chemotherapy because they were elderly, had poor performance status, or comorbid medical condition. Before trial inclusion, smoking status was assessed and patients were classified as never, former (smoking cessation >6 months prior to trial inclusion), or current smokers (cessation <6 months before trial inclusion or active smoker).
Patients were evaluated for response according to the RECIST criteria (30). Tumor response was assessed by computer tomography scan every two months, with a confirmatory evaluation to be repeated in responding patients at least 4 weeks after the initial determination of response. […] Survival (OS) was calculated from the date of therapy initiation to the date of death or last contact.
Differences between the FISH groups were compared by Fisher's exact test or χ^2 test for qualitative variables and by t-student test or ANOVA for continuous variables. Normality of the distribution was assessed by Kolmogorov-Smirnov test. […] Risk factors associated with survival were evaluated using Cox's proportional-hazards regression model with a step-down procedure (33). Only those variables with significant results in univariate analysis were included in the multivariate analysis. The criteria for variable removal was the likelihood ratio statistic based on the maximum partial likelihood estimated (default p-value=0.10 for removal from the model).
Complete clinical information and tissue blocks were available from 80 out of 106 patients enrolled in the Akt clinical trial (Cappuzzo et al., ibid.), and from an additional 22 patients in the Expanded Access Study who were treated consecutively at the end of the Akt study and followed in the same way as patients in the Akt trial.
Eligibility for both studies included histologically confirmed NSCLC with measurable, locally advanced or metastatic disease, progressing or relapsing after chemotherapy or with medical contraindications for chemotherapy. Patients had performance status ranging from grade 0 to 2. Performance status was defined according to Eastern Cooperative Oncology Group (Oken et al., 1982) and considered grade 0 when the patient was fully active and able to perform all pre-disease activities without restriction, grade 1 when the patient was restricted in physically strenuous activity but ambulatory and able to perform work of a light or sedentary nature, and grade 2 when the patient was ambulatory and capable of all self-care but unable to perform any work activities.
Tumor response was assessed by computer tomography scan after 2 months, with a confirmatory evaluation to be repeated in responders and in patients with stable disease at least 4 weeks after the initial determination of response. […] Survival was calculated from the date of therapy initiation to the date of death or to the date of last contact.
Differences between and among groups were compared using Fisher's exact test or Pearson's chi square test for qualitative variables and using student's t test or analysis of variance for continuous variables. Normality of the distribution was assessed using the Kolmogorov-Smirnov test (Curiel et al., 1990).

SMILES: COc1cc2ncnc(Nc3ccc(F)c(Cl)c3)c2cc1OCCCN1CCOCC1 [gefitinib]
- TTP (HER2 FISH+/EGFR IHC+): 12.3 months
- OS (HER2 FISH+/EGFR IHC-): 3.3 months
- TTP (HER2 FISH+/EGFR IHC-): 2.3 months
- DCR (HER2 FISH+/EGFR mutation+): 87.5%
- OR (HER2 FISH+/EGFR mutation+): 87.5%
- OS (HER2 FISH+/EGFR mutation+): not reached
- TTP (HER2 FISH+/EGFR mutation+): 15.5 months
- OR (HER2 FISH+/EGFR mutation-): no patient responded
- TTP (HER2 FISH+/EGFR mutation-): 2.3 months
- DCR (HER2 FISH-): 33.3%
- OR (HER2 FISH-): 6.4%
- OS (HER2 FISH-): 8.4 months
- TTP (HER2 FISH-): 2.7 months
- DCR (HER2 FISH- and/or EGFR FISH-): 33.0%
- OR (HER2 FISH- and/or EGFR FISH-): 6.8%
- median OS (HER2 FISH- and/or EGFR FISH-): 8.3 months
- median TTP (HER2 FISH- and/or EGFR FISH-): 2.6 months
- DCR (HER2 FISH- and/or EGFR IHC-): 34.5%
- OR (HER2 FISH- and/or EGFR IHC-): 7.1%
- OS (HER2 FISH- and/or EGFR IHC-): 8.4 months
- TTP (HER2 FISH- and/or EGFR IHC-): 2.6 months
- DCR [1]: 31.3%
- OR [1]: 5.0%
- OS [1]: 8.3
- TTP [1]: 2.6 months
- DCR (HER2 FISH-/EGFR FISH+): 30.0%
- OR (HER2 FISH-/EGFR FISH+): 10.0%
- median OS (HER2 FISH-/EGFR FISH+): 9.3 months
- median TTP (HER2 FISH-/EGFR FISH+): 5.3 months
- OR (HER2 FISH-/EGFR FISH-): 1.6%
- median OS (HER2 FISH-/EGFR FISH-): 7.3 months
- median TTP (HER2 FISH-/EGFR FISH-): 2.6 months
- OR (HER2 FISH-/EGFR IHC+): 11.1%
- OS (HER2 FISH-/EGFR IHC+): 11.3 months
- TTP (HER2 FISH-/EGFR IHC+): 4.2 months
- DCR (HER2 FISH-/EGFR IHC-): 13.7%
- OR (HER2 FISH-/EGFR IHC-): 0%
- OS (HER2 FISH-/EGFR IHC-): 5.0 months
- TTP (HER2 FISH-/EGFR IHC-): 2.1 months
- DCR (HER2 FISH-/EGFR mutation+): 28.5%
- OR (HER2 FISH-/EGFR mutation+): 14.2%
- OS (HER2 FISH-/EGFR mutation+): 5.7
- TTP (HER2 FISH-/EGFR mutation+): 2.8 months
- DCR (HER2 FISH-/EGFR mutation-): 32.2%
- OR (HER2 FISH-/EGFR mutation-): 4.8%
- Disease Control Rate (Italian Cohort, Table 12): 39%
- Median Survival (Italian Cohort, Table 12): 9 (6-11)
- Median Time to Progression (Italian Cohort, Table 12): 3 (2-4)
- One-YR Survival (Italian Cohort, Table 12): 41% (31-51)
- Overall Response (Italian Cohort, Table 12): 13%
- Disease Control Rate (P-Akt negative): 22%
- response rate (P-Akt negative): 0%
- time to progression (P-Akt negative): 2.1 months
- Survival (P-Akt positive): 11.4 months
- response rate (P-Akt positive): 21%
- time to progression (P-Akt positive): 4.2 months
- 1-year Cumulative Survival ± SD (adenocarcinoma): 45 ± 7%
- Median Survival (adenocarcinoma): 11.3 months
- Median Time to Progression (adenocarcinoma): 3.2 months
- Objective Response (adenocarcinoma): 8/15%
- Median Time to Progression [2]: 2.9 months
- Objective Response [2]: 12/14%
- 1-year survival [3]: 41 ± 5
- MS [3]: 9.4 mo
- OR [3]: 12 (13%)
- TTP [3]: 2.9 mo
- 1-year Cumulative Survival ± SD [4]: 47 ± 6%
- Disease Control Rate [4]: 40/40%
- Median Survival [4]: 11.5 months
- Median Time to Progression [4]: 4.5 months
- Objective Response [4]: 14/14%
- MS (median overall survival) (all 98 patients with EGFR IHC): 9.5 mo
- OR (objective response) (all 98 patients with EGFR IHC): 14 (14%)
- PD (progressive disease) (all 98 patients with EGFR IHC): 58 (59%)
- TTP (all 98 patients with EGFR IHC): 2.9 mo
- 1-year Cumulative Survival ± SD [5]: 45 ± 6%
- Disease Control Rate [5]: 40/40%
- Median Survival [5]: 11.3 months
- Median Time to Progression [5]: 3.2 months
- Objective Response [5]: 14/14%
- Complete response (CR) (all 102 patients): 1%
- Partial responses (PR) (all 102 patients): 12.7%
- % Patients without disease progression at 12 months [6]: 18.6%
- Complete and Partial Response [6]: 13.7% and 14%
- Disease Control Rate [6]: 39.2% and 39%
- Median Time to Progression [6]: 2.9 months
- One-year Survival Rate [6]: 45.1%
- Progressive Disease [6]: 60.8%
- Stable Disease [6]: 25.5%
- Median Time to Progression (all 102 patients, Table 1): 2.9 months
- Objective Response (all 102 patients, Table 1): 14% and 14/14%
- Progressive Disease (all 102 patients, Table 1): 60% and 62/60%
- 1-year Cumulative Survival ± SD (bronchioloalveolar): 67 ± 16%
- Median Survival (bronchioloalveolar): 16.5 months
- Median Time to Progression (bronchioloalveolar): 3.0 months
- Objective Response (bronchioloalveolar): 3/33%
- Progressive Disease (bronchioloalveolar): 5/56%
- 1-year Cumulative Survival ± SD (current smoker): 30 ± 6%
- Median Survival (current smoker): 4.5 months
- Median Time to Progression (current smoker): 2.3 months
- Objective Response (current smoker): 3/6%
- Progressive Disease (current smoker): 39/72%
- 1-year Cumulative Survival ± SD (female): 48 ± 9%
- Median Survival (female): 11.3 months
- Median Time to Progression (female): 5.2 months
- Progressive Disease (female): 16/46%
- median TTP (females, Example 1 analysis): 4.5 months
- response rate (former and current smokers): 20.8%
- 1-year Cumulative Survival ± SD (former smoker): 55 ± 9%
- Median Time to Progression (former smoker): 3.6 months
- Objective Response (former smoker): 5/15%
- Progressive Disease (former smoker): 17/51%
- 1-year Cumulative Survival ± SD (large cell): 0 ± 0%
- Median Survival (large cell): 0.8 months
- Median Time to Progression (large cell): 0.8 months
- Objective Response (large cell): 0%
- Progressive Disease (large cell): 2/100%
- Median Time to Progression (male): 2.7 months
- Objective Response (male): 6.0% and 4/6%
- median TTP (males, Example 1 analysis): 2.7 months
- 1-year Cumulative Survival ± SD (never smoker): 47 ± 14%
- Median Survival (never smoker): 10.9 months
- Median Time to Progression (never smoker): 5.3 months
- Progressive Disease (never smoker): 6/40%
- Median Time to Progression (performance status 0): 2.6 months
- Objective Response (performance status 0): 5/10%
- Progressive Disease (performance status 0): 32/65%
- 1-year Cumulative Survival ± SD (performance status 1): 47 ± 8%
- Median Survival (performance status 1): 10.9 months
- Median Time to Progression (performance status 1): 4.2 months
- Progressive Disease (performance status 1): 22/54%
- 1-year Cumulative Survival ± SD (performance status 2): 22 ± 13%
- Median Survival (performance status 2): 2.7 months
- Median Time to Progression (performance status 2): 2.1 months
- Objective Response (performance status 2): 2/17%
- 1-year Cumulative Survival ± SD (squamous cell): 22 ± 9%
- Median Time to Progression (squamous cell): 2.2 months
- Objective Response (squamous cell): 2/8%
- 1-year Cumulative Survival ± SD (stage III): 36 ± 13%
- Median Time to Progression (stage III): 6.0 months
- Objective Response (stage III): 1/7%
- Median Time to Progression (stage IV): 2.7 months
- Objective Response (stage IV): 13/15%
- 1-year Cumulative Survival ± SD (undifferentiated): 45 ± 15%
- Median Time to Progression (undifferentiated): 2.1 months
- Objective Response (undifferentiated): 1/9%
